Test results taken from the NIST ThermoML archive (doi:10.1016/j.tca.2015.01.012).

Conditions: 101.33 kPa, Crystal; for molar entropy: Small (less than 1 g) adiabatic calorimetry; for mass density: X-ray diffraction

O=C(O)c1cccnc1 [3-carboxylpyridine]
Conditions	mass density [kg/m3]	molar entropy [J/K/mol]
1 K	–	0.0005
2 K	–	0.004
3 K	–	0.0136
4 K	–	0.0323
5 K	–	0.063
6 K	–	0.1089
7 K	–	0.1788
8 K	–	0.2634
9 K	–	0.3747
10 K	–	0.5086
15 K	–	1.592
20 K	–	3.297
25 K	–	5.543
30 K	–	8.212
35 K	–	11.2
40 K	–	14.39
45 K	–	17.7
50 K	–	21.08
60 K	–	27.91
70 K	–	34.69
80 K	–	41.32
90 K	–	47.75
100 K	–	53.98
110 K	–	60.02
120 K	–	65.91
130 K	–	71.64
140 K	–	77.24
150 K	1481	82.72
160 K	–	88.1
170 K	–	93.38
175 K	1477	–
180 K	–	98.6
190 K	–	103.7
200 K	1471	108.9
210 K	–	113.9
220 K	–	119
225 K	1465	–
230 K	–	124
240 K	–	129
250 K	1460	134.1
260 K	–	139.1
270 K	–	144.2
273.15 K	–	145.7
275 K	1454	–
280 K	–	149.2
290 K	–	154.3
298.15 K	–	158.4
300 K	1444	159.3
310 K	–	164.4
320 K	–	169.5
325 K	1436	–
330 K	–	174.6
340 K	–	179.7
346 K	–	182.8
350 K	1430	–
375 K	1422	–
400 K	1413	–
425 K	1406	–
